This passage reports EC50 results from patent publication US10987359B2, “Oxadiazepinone derivatives and methods of treating hepatitis B infections” (priority 2016, dated 2021).

The test concerns HBV. In words: HBV replication inhibition assay (BDNA assay) in HepG2.2.15 cells. The test is classed as cell-based. Conditions: HepG2.2.15 cells, read-out: DNA EC50. The method, then:
HBV replication inhibition by the disclosed compounds were determined in cells infected or transfected with HBV or cells with stably integrated HBV, such as HepG2.2.15 cells (Sells et al. 1987). In this example, HepG2.2.15 cells were maintained in cell culture medium containing 10% fetal bovine serum (FBS), Geneticin, L-glutamine, penicillin and streptomycin. HepG2.2.15 cells were seeded in 96-well plates at a density of 40,000 cells/well and were treated with serially diluted compounds at a final DMSO concentration of 0.5% either alone or in combination by adding drugs in a checker box format. Cells were incubated with compounds for three days, after which medium was removed and fresh medium containing compounds was added to cells and incubated for another three days. At day 6, supernatant was removed and treated with DNase at 37° C. for 60 minutes, followed by enzyme inactivation at 75° C. for 15 minutes. Encapsidated HBV DNA was released from the virions and covalently linked HBV polymerase by incubating in lysis buffer (Affymetrix QS0010) containing 2.5 μg proteinase K at 50° C. for 40 minutes. HBV DNA was denatured by addition of 0.2 M NaOH and detected using a branched DNA (BDNA) QuantiGene assay kit according to manufacturer recommendation (Affymetrix). HBV DNA levels were also quantified using qPCR, based on amplification of encapsidated HBV DNA extraction with QuickExtraction Solution (Epicentre Biotechnologies) and amplification of HBV DNA using HBV specific PCR probes that can hybridize to HBV DNA and a fluorescently labeled probe for quantitation. In addition, cell viability of HepG2.2.15 cells incubated with test compounds alone or in combination was determined by using CellTitre-Glo reagent according to the manufacturer protocol (Promega). The mean background signal from wells containing only culture medium was subtracted from all other samples, and percent inhibition at each compound concentration was calculated by normalizing to signals from HepG2.2.15 cells treated with 0.5% DMSO using equation E1. % inhibition=(DMSOave−Xi)/DMSOave×100% E1: […]
where DMSOave is the mean signal calculated from the wells that were treated with DMSO control (0% inhibition control) and Xi is the signal measured from the individual wells. EC50 values, effective concentrations that achieved 50% inhibitory effect, were determined by non-linear fitting using Graphpad Prism software (San Diego, Calif.) and equation E2: Y=Y min+(Y max−Y min)/(1+10(Log EC50−X)×HillSlope) E2: […]
where Y represents percent inhibition values and X represents the logarithm of compound concentrations.
Selected disclosed compounds were assayed in the HBV replication assay (BDNA assay), as described above, and a representative group of these active compounds is shown in Table 7. […] In Table 7, “A” represents 1<EC50≤100; “B” represents 100<EC50≤500; “C” represents 500<EC50≤1000; and “D” represents EC50>1000.

Where [1] appears, read: Hepatitis B virus, HepG2.2.15, HBV replication assay (BDNA assay).
The mark [2] stands for this setting: HBV replication assay (BDNA assay).

Where two headings read alike, the source gives them in different places.

On to `C[C@@H]1Cc2nn3c(c2CN1C(=O)Nc1ccnc(Br)c1F)C(=O)N(C)OCC3` [Compound 078, (R)—N-(2-bromo-3-fluoropyridin-4-yl)-2,9-dimethyl-1-oxo-1,4,5,8,9,11-hexahydropyrido[4′,3′:3,4]pyrazolo[5,1-d][1,2,5]oxadiazepine-10(2H)-carboxamide], for which, under setting [1], the 50% effective concentration (EC50) lay within 1 to 100 nM.

As for `C[C@@H]1Cc2nn3c(c2CN1C(=O)Nc1cc(Br)c(F)cc1F)C(=O)N(C)OC(COCC(F)F)C3` (single isomer, unassigned) [Compound 108_D1, (4S*,9R)—N-(5-bromo-2,4-difluorophenyl)-4-((2,2-difluoroethoxy)methyl)-2,9-dimethyl-1-oxo-1,4,5,8,9,11-hexahydropyrido[4′,3′:3,4]pyrazolo[5,1-d][1,2,5]oxadiazepine-10(2H)-carboxamide], the EC50 under setting [2] was in the range of 100 to 500 nM. In the case of `CN1OC(CNCC(F)F)Cn2nc3c(c2C1=O)CN(C(=O)Nc1ccc(F)c(Br)c1)CC3` (single isomer, unassigned) [Compound 190_E1, (S*)—N-(3-bromo-4-fluorophenyl)-4-(((2,2-difluoroethyl)amino)methyl)-2-methyl-1-oxo-1,4,5,8,9,11-hexahydropyrido[4′,3′:3,4]pyrazolo[5,1-d][1,2,5]oxadiazepine-10(2H)-carboxamide], under setting [1], the EC50 was 1 to 100 nM.

As for `Cc1cc(NC(=O)N2Cc3c(nn4c3C(=O)N(C)OC(CN(C)C)C4)C[C@H]2C)ccc1F` (stereo in doubt) [Compound 097_D1, (4 S*,9R)-4-((dimethylamino)methyl)-N-(4-fluoro-3-methylphenyl)-2,9-dimethyl-1-oxo-1,4,5,8,9,11-hexahydropyrido[4′,3′:3,4]pyrazolo[5,1-d][1,2,5]oxadiazepine-10(2H)-carboxamide], the EC50 under setting [1] lay in the range of 1 to 100 nM.

For the compound `CN1OC(COCC(F)F)Cn2nc3c(c2C1=O)CN(C(=O)Nc1ccc(F)c(C(F)(F)F)c1)CC3` (single isomer, unassigned) [Compound 212, (S*)-4-((2,2-difluoroethoxy)methyl)-N-(4-fluoro-3-(trifluoromethyl)phenyl)-2-methyl-1-oxo-1,4,5,8,9,11-hexahydropyrido[4′,3′:3,4]pyrazolo[5,1-d][1,2,5]oxadiazepine-10(2H)-carboxamide], the 50% effective concentration (EC50) under setting [1] fell in the range of 1 to 100 nM.

`CN1OC(CO)Cn2nc3c(c2C1=O)CN(C(=O)Nc1cc(Br)ccc1F)CC3` (single isomer, unassigned) [Compound 141_E1, (S*)—N-(5-bromo-2-fluorophenyl)-4-(hydroxymethyl)-2-methyl-1-oxo-1,4,5,8,9,11-hexahydropyrido[4′,3′:3,4]pyrazolo[5,1-d][1,2,5]oxadiazepine-10(2H)-carboxamide]: under setting [1], the EC50 lay in the range of 1 to 100 nM. Turning to `COC(=O)OCC1Cn2nc3c(c2C(=O)N(C)O1)CN(C(=O)Nc1ccc(F)c(Cl)c1)CC3` (stereo not drawn) [Compound 051, (10-((3-chloro-4-fluorophenyl)carbamoyl)-2-methyl-1-oxo-1,2,4,5,8,9,10,11-octahydropyrido[4′,3′:3,4]pyrazolo[5,1-d][1,2,5]oxadiazepin-4-yl)methyl methyl carbonate], the EC50 under setting [1] is 1 to 100 nM. On the same count and under the same terms, to `Cc1c(F)ccc(NC(=O)N2CCc3nn4c(c3C2)C(=O)N(C)OC(CO)C4)c1F` (single isomer, unassigned) [Compound 142_E1, (S*)—N-(2,4-difluoro-3-methylphenyl)-4-(hydroxymethyl)-2-methyl-1-oxo-1,4,5,8,9,11-hexahydropyrido[4′,3′:3,4]pyrazolo[5,1-d][1,2,5]oxadiazepine-10(2H)-carboxamide] belongs 1 to 100 nM; to `CC[C@@H]1Cc2nn3c(c2CN1C(=O)Nc1ccc(F)c(Cl)c1)C(=O)N(C)O[C@@H](CO)C3` (stereo in doubt) [Compound 109_D3, (4R*,9R*)—N-(3-chloro-4-fluorophenyl)-9-ethyl-4-(hydroxymethyl)-2-methyl-1-oxo-1,4,5,8,9,11-hexahydropyrido[4′,3′:3,4]pyrazolo[5,1-d][1,2,5]oxadiazepine-10(2H)-carboxamide], 500 to 1000 nM; to `C[C@H]1Cc2nn3c(c2CN1C(=O)Nc1ccc(F)c(Cl)c1)C(=O)N(C)O[C@H](CO)C3` (stereo in doubt) [Compound 069_E1, (4S*,9S*)—N-(3-chloro-4-fluorophenyl)-4-(hydroxymethyl)-2,9-dimethyl-1-oxo-1,4,5,8,9,11-hexahydropyrido[4′,3′:3,4]pyrazolo[5,1-d][1,2,5]oxadiazepine-10(2H)-carboxamide], 1 to 100 nM. As to `CNC(=O)C1Cn2nc3c(c2C(=O)N(C)O1)CN(C(=O)Nc1ccc(F)c(Cl)c1F)[C@H](C)C3` (single isomer, unassigned) [Compound 110_D2, (4R*,9R)—N10-(3-chloro-2,4-difluorophenyl)-N4,2,9-trimethyl-1-oxo-1,4,5,8,9,11-hexahydropyrido[4′,3′:3,4]pyrazolo[5,1-d][1,2,5]oxadiazepine-4,10(2H)-dicarboxamide], the 50% effective concentration (EC50) under setting [2] lay in the range of 1 to 100 nM.

In the case of `CN1OC(CO)Cn2nc3c(c2C1=O)CN(C(=O)Nc1cc(F)c(F)c(Cl)c1)CC3` (single isomer, unassigned) [Compound 028_E1, (S*)—N-(3-chloro-4,5-difluorophenyl)-4-(hydroxymethyl)-2-methyl-1-oxo-1,4,5,8,9,11-hexahydropyrido[4′,3′:3,4]pyrazolo[5,1-d][1,2,5]oxadiazepine-10(2H)-carboxamide], under setting [1], the EC50 is 1 to 100 nM. Still for that read-out and setting: to `CN1OC(CO)Cn2nc3c(c2C1=O)CN(C(=O)Nc1cc(Br)cc(F)c1F)CC3` (single isomer, unassigned) [Compound 140_E1, (S*)—N-(5-bromo-2,3-difluorophenyl)-4-(hydroxymethyl)-2-methyl-1-oxo-1,4,5,8,9,11-hexahydropyrido[4′,3′:3,4]pyrazolo[5,1-d][1,2,5]oxadiazepine-10(2H)-carboxamide] belongs 1 to 100 nM; to `Cc1cc(NC(=O)N2Cc3c(nn4c3C(=O)N(C)OC(COCC(F)F)C4)C[C@H]2C)ccc1F` (stereo in doubt) [Compound 125_D1, (4S*,9R)-4-((2,2-difluoroethoxy)methyl)-N-(4-fluoro-3-methylphenyl)-2,9-dimethyl-1-oxo-1,4,5,8,9,11-hexahydropyrido[4′,3′:3,4]pyrazolo[5,1-d][1,2,5]oxadiazepine-10(2H)-carboxamide], 1 to 100 nM. In the case of `C[C@@H]1Cc2nn3c(c2CN1C(=O)Nc1cc(Cl)c(F)cc1F)C(=O)N(C)OC(CN(C)C)C3` (stereo in doubt) [Compound 099_D2, (4R*,9R)—N-(5-chloro-2,4-difluorophenyl)-4-((dimethylamino)methyl)-2,9-dimethyl-1-oxo-1,4,5,8,9,11-hexahydropyrido[4′,3′:3,4]pyrazolo[5,1-d][1,2,5]oxadiazepine-10(2H)-carboxamide], the EC50 under setting [2] lay in the range of 100 to 500 nM. On to `CN1OC(CNCC(F)F)Cn2nc3c(c2C1=O)CN(C(=O)Nc1ccc(F)c(Br)c1F)CC3` (single isomer, unassigned) [Compound 189_E1, (S*)—N-(3-bromo-2,4-difluorophenyl)-4-(((2,2-difluoroethyl)amino)methyl)-2-methyl-1-oxo-1,4,5,8,9,11-hexahydropyrido[4′,3′:3,4]pyrazolo[5,1-d][1,2,5]oxadiazepine-10(2H)-carboxamide], for which the concentration for a half-maximal effect (EC50) under setting [1] fell in the range of 1 to 100 nM.

Regarding `CN1OC(CO)Cn2nc3c(c2C1=O)CN(C(=O)Nc1ccc(F)c(F)c1)CC3` (stereo not drawn) [Compound 005, N-(3,4-difluorophenyl)-4-(hydroxymethyl)-2-methyl-1-oxo-1,4,5,8,9,11-hexahydropyrido[4′,3′:3,4]pyrazolo[5,1-d][1,2,5]oxadiazepine-10(2H)-carboxamide], the EC50 under setting [1] was in the range of 1 to 100 nM. As to `COC(=O)NCC1Cn2nc3c(c2C(=O)N(C)O1)CN(C(=O)Nc1ccc(F)c(C(F)(F)F)c1)[C@H](C)C3` (single isomer, unassigned) [Compound 181_D2, methyl (((4R*,9R)-10-((4-fluoro-3-(trifluoromethyl)phenyl)carbamoyl)-2,9-dimethyl-1-oxo-1,2,4,5,8,9,10,11-octahydropyrido[4′,3′:3,4]pyrazolo[5,1-d][1,2,5]oxadiazepin-4-yl)methyl)carbamate], under setting [2], the EC50 lay in the range of 1 to 100 nM.
